# In patent publication US8101766B2, “Crystalline form of a biphenyl compound” (Theravance, Inc., priority 2004, dated 2012):
# Assays:
# [1] = Dynamic moisture sorption (DMS) assessment; type: physicochemical; conditions: for deliquescence: exposed to atmospheric moisture / DMS
# Method: Dynamic Moisture Sorption Assessment
# A dynamic moisture sorption (DMS) assessment (also known as a moisture sorption-desorption profile) was performed for a hand ground sample of a crystalline 1,2-ethanedisulfonic acid salt of biphenyl-2-ylcarbamic acid 1-[2-(2-chloro-4-{[(R)-2-hydroxy-2-(8-hydroxy-2-oxo-1,2-dihydroquinolin-5-yl)ethylamino]methyl}-5-methoxyphenylcarbamoyl)ethyl]piperidin-4-yl ester of Preparation 18 using a VTI atmospheric microbalance, SGA-100 system (VTI Corp., Hialeah, Fla. 33016). A sample size of approximately 10 mg was used and the humidity was set at the ambient value at the start of the analysis. A typical DMS analysis consisted of three scans: ambient to 2% relative humidity (RH), 2% RH to 90% RH, 90% RH to 5% RH at a scan rate of 5% RH/step. The mass was measured every two minutes and the RH was changed to the next value (+/−5% RH) when the mass of the sample was stable to within 0.01% for 5 consecutive points.
# [2] = Thermal analysis (DSC and TGA); type: physicochemical; conditions: DSC traces, samples of Example 6 and Example 2
# Method: Differential scanning calorimetry (DSC) was performed using a TA Instruments Model Q-10 module with a Thermal Analyst controller. Data were collected and analyzed using TA Instruments Thermal Solutions software. A sample of about 1 mg was accurately weighed into an aluminum pan with lid. The sample was evaluated using a linear heating ramp of 5° C./min from ambient temperature to approximately 300° C. The DSC cell was purged with dry nitrogen during use. A representative DSC trace for a sample of a crystalline 1,2-ethanedisulfonic acid salt of biphenyl-2-ylcarbamic acid 1-[2-(2-chloro-4-{[(R)-2-hydroxy-2-(8-hydroxy-2-oxo-1,2-dihydroquinolin-5-yl)ethylamino]methyl}-5-methoxyphenylcarbamoyl)ethyl]piperidin-4-yl ester of Example 6 is shown in FIG. 1 and a representative DSC trace for a sample of Example 2 is shown in FIG. 2.
# Thermogravimetric analysis (TGA) was performed using a TA Instruments Model Q-50 module equipped with high resolution capability. Data were collected and analyzed using TA Instruments Thermal Solutions software. A sample weighing about 10 mg was placed onto a platinum pan and scanned with a high resolution-heating rate from ambient temperature to 300° C. The balance and furnace chambers were purged with nitrogen flows during use. […]
substance,measurement,setting,value
"Biphenyl-2-ylcarbamic Acid 1-[2-(2-Chloro-4-{[(R)-2-hydroxy-2-(8-hydroxy-2-oxo-1,2-dihydroquinolin-5-yl)ethylamino]methyl}-5-methoxyphenylcarbamoyl)-ethyl]piperidin-4-yl Ester 1,2-Ethanedisulfonic Acid Salt",sorption/desorption profile,[1]; DMS,reversible
same,hygroscopicity,"[1]; DMS trace, scans 2% RH to 90% RH, hand ground sample of Preparation 18",< 9%
same,deliquescence,[1],not deliquescent
same,deliquescence,"[1]; listed as crystalline 1,2-ethanedisulfonic acid salts of the compound of formula I",not to be deliquescent
same,weight gain,[1]; humidity range of 40% RH to 75% RH,less than 2.5%
same,thermal stability: temperature below which no thermal decomposition,[2],≥ 200 °C
